Measurements published in US5066489A (Cetus Corporation, priority 1990, dated 1991).

Columns and labels:
[1] = DTIC pharmacokinetics in patients (first two cycles, 12 patients); format: in vivo, human; settings: effect of IL-2; first two cycles in 12 patients
Description: (§1) For the First Cycle--Patients were admitted to the hospital on a Sunday evening for a Hickman catheter placement on the succeeding Monday. On Day 1 (Tuesday), DTIC was administered by continuous 24 hour infusion at a dose of 1.0 gm/m^2 intravenously. Pharmacokinetic studies were performed on Days 1 and 2.
DTIC pharmokinetics were performed on the first two cycles in 12 patients.

[2] = cited from earlier work
metastatic melanoma = settings: cited from earlier work
[3] = Phase I-II study of IL-2 plus DTIC in melanoma patients: toxicity; format: in vivo, human; settings: DTIC 1.0 gm/m^2 24 h infusion
Description: Patients, between 18 to 70 years of age, were admitted for three, separate Phase I-II studies. Each patient had to meet the following criteria for entering the study:
1. Dose and Schedule--Twenty patients received three cycles of Interleukin-2 in combination with DTIC. Each cycle was 28 days in duration. All drugs were administered by hospital staff either while in-patient or in the out-patient clinic. Patients received 1.0 gm/m^2 of DTIC as an IV continuous infusion over 24 hours every 4 weeks.
as §1
The dose schedule was identical to that given for cycle two.

Structure (SMILES) | peak plasma levels [1] | hematologic and GI toxicities ([2]; DTIC dose regimen) | acute toxicity ([2]; five-day continuous infusions) | antitumor schedule dependency (metastatic melanoma; DTIC dose regimens) | single agent response rate (metastatic melanoma; Roth and Kirkwood (1987)) | most promising response rate (%) observed alone (metastatic melanoma; complete plus partial responses, treatment of melanoma, Roth (DTIC), Rosenberg et al 1987 (IL-2)) | dose responses (metastatic melanoma; five-day continuous infusions) | responsiveness of visceral metastases (gastrointestinal tract, liver, brain) (metastatic melanoma; versus soft tissue disease) | dosage adjustments for nausea/vomiting or for myelosuppression [3] | mild nausea and vomiting ([3]; of the courses)
NC(=O)c1[nH]cnc1N [AIC, 5-aminoimidazole 4-carboxamide] | not altered by IL-2 | – | – | – | – | – | – | – | – | –
CN(C)N=Nc1[nH]cnc1C(N)=O [DTIC, dimethyl-triazeno-imidazole-carboxmide] | not altered by IL-2 | vary with the DTIC dose regimen used | least acute toxicity | has not been observed | 24% | approximately 24% | equivalent dose responses | relatively less responsive than soft tissue disease | required no dosage adjustments | 96%
